Results reported in patent US20060263802A1 (priority 2003, published 2006).

Legend:
Format in all cases: binding
[1] = system: human monoclonal antibody CR57
[2] = system: human monoclonal antibody CRJB
[3] = system: human monoclonal antibody CRJA
[4] = system: human monoclonal antibody CRJB; remark: listed apart in the source
[5] = system: human monoclonal antibody CR57; remark: listed apart in the source
[6] = system: human monoclonal antibody CRJA; remark: listed apart in the source

| Sequence | Binding of CR57 (10 μg/ml) to looped/cyclic peptide (PEPSCAN-ELISA signal) [1] | Binding of CRJB (10 μg/ml) to looped/cyclic peptide (PEPSCAN-ELISA signal) [2] | Binding of CRJA (10 μg/ml) to looped/cyclic peptide (PEPSCAN-ELISA signal) [3] | Binding of CRJB to linear peptide (PEPSCAN-ELISA signal) [4] | Binding of CR57 to linear peptide (PEPSCAN-ELISA signal) [5] | Binding of CRJA to linear peptide (PEPSCAN-ELISA signal) [6] | Binding of CR57 (10 μg/ml) to looped/cyclic peptide (PEPSCAN-ELISA) [1] | Binding of CRJB (10 μg/ml) to looped/cyclic peptide (PEPSCAN-ELISA) [2] | Binding of CRJA (10 μg/ml) to looped/cyclic peptide (PEPSCAN-ELISA) [3] | Binding of CR57 to looped/cyclic peptide (PEPSCAN-ELISA signal) [1] | Binding of CRJB to looped/cyclic peptide (PEPSCAN-ELISA signal) [2] | Binding of CRJA to looped/cyclic peptide (PEPSCAN-ELISA signal) [3] | Binding of human monoclonal antibody CRJB to linear peptide (PEPSCAN-ELISA signal) [4] | Binding of human monoclonal antibody CR57 to linear peptide (PEPSCAN-ELISA signal) [5] | Binding of human monoclonal antibody CRJA to linear peptide (PEPSCAN-ELISA signal) [6] |
| --- | --- | --- | --- | --- | --- | --- | --- | --- | --- | --- | --- | --- | --- | --- | --- |
| VVEDEGCTNLSGFSY | 79 | 66 | 68 | 107 | 73 | 63 | – | – | – | – | – | – | – | – | – |
| YNWKMAGDPRYEESL | 89 | 89 | 98 | 118 | 83 | 110 | – | – | – | – | – | – | – | – | – |
| RLSHLRKLVPGFGKA | – | – | – | 123 | 93 | 93 | 111 | 111 | 106 | – | – | – | – | – | – |
| YMELKVGYILAIKMN | 93 | 83 | 76 | 114 | 78 | 96 | – | – | – | – | – | – | – | – | – |
| HYKSVRTWNEILPSK | – | – | – | 130 | 80 | 87 | 112 | 101 | 100 | – | – | – | – | – | – |
| IEHLVVEELVRKREE | – | – | – | 129 | 90 | 100 | 103 | 112 | 112 | – | – | – | – | – | – |
| VSSTYCSTNHDYTIW | 89 | 61 | 88 | 107 | 78 | 80 | – | – | – | – | – | – | – | – | – |
| KAYTIFNKTLMEADA | – | – | – | 123 | 101 | 76 | 137 | 92 | 104 | – | – | – | – | – | – |
| SCDIFTNSRGKRASK | 1 | 79 | 57 | 111 | 44 | 89 | – | – | – | – | – | – | – | – | – |
| FPSGKCSGVAVSSTY | 90 | 74 | 80 | 134 | 64 | 93 | – | – | – | – | – | – | – | – | – |
| TNLSGFSYMELKVGY | 39 | 107 | 85 | 106 | 43 | 102 | – | – | – | – | – | – | – | – | – |
| GPWSPIDIHHLSCPN | 78 | 78 | 97 | 114 | 68 | 72 | – | – | – | – | – | – | – | – | – |
| PTPDACRAAYNWKMA | 114 | 112 | 136 | 125 | 99 | 129 | – | – | – | – | – | – | – | – | – |
| MNGFTCTGVVTEAEN | 85 | 118 | 78 | 99 | 69 | 87 | – | – | – | – | – | – | – | – | – |
| HLSCPNNLVVEDEGC | 76 | 64 | 92 | 119 | 65 | 76 | – | – | – | – | – | – | – | – | – |
| IPEMQSSLLQQHMEL | – | – | – | 128 | 89 | 60 | 66 | 83 | 54 | – | – | – | – | – | – |
| NLVVEDEGCTNLSGF | 106 | 92 | 74 | 119 | 75 | 85 | – | – | – | – | – | – | – | – | – |
| EGCTNLSGFSYMELK | 39 | 73 | 38 | 114 | 51 | 59 | – | – | – | – | – | – | – | – | – |
| TWVAMQTSNETKWCP | – | – | – | 118 | 78 | 100 | 87 | 89 | 84 | – | – | – | – | – | – |
| LLESSVIPLVHPLAD | – | – | – | 117 | 72 | 92 | 93 | 76 | 91 | – | – | – | – | – | – |
| IMTTKSVSFRRLSHL | – | – | – | 101 | 43 | 85 | 74 | 42 | 63 | – | – | – | – | – | – |
| FSYMELKVGYILAIK | 104 | 72 | 96 | 112 | 89 | 120 | – | – | – | – | – | – | – | – | – |
| VHPLADPSTVFKDGD | – | – | – | – | – | – | – | – | – | 107 | 79 | 99 | 138 | 98 | 111 |
| LSHLRKLVPGFGKAY | – | – | – | 139 | 96 | 93 | 121 | 123 | 93 | – | – | – | – | – | – |
